This assay addresses T1, LXRβ (Homo sapiens, UniProt P55055).
T1 construct: Co-transfection expression plasmids, comprising full-length LXRα (pCMX-h LXRα or LXRβ (pCMX-hLXRβ)); expressed in transfected cells; host or cells: CV-1 African green monkey kidney cells, transient transfection with pCMX-hLXRβ
T1 sequence (P55055 1-460): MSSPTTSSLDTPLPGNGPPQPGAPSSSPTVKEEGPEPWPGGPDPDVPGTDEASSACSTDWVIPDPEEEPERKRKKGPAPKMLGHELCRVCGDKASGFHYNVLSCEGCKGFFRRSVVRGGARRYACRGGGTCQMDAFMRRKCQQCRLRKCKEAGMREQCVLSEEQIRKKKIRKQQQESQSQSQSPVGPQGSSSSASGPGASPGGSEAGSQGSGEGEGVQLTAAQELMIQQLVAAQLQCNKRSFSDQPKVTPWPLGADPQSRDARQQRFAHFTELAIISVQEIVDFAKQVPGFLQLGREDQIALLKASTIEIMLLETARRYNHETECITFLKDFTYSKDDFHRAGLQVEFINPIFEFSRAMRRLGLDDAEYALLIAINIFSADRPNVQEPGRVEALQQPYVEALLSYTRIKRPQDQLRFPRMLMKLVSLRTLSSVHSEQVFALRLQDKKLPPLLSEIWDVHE
T1 sequence (P19793 1-462 partner): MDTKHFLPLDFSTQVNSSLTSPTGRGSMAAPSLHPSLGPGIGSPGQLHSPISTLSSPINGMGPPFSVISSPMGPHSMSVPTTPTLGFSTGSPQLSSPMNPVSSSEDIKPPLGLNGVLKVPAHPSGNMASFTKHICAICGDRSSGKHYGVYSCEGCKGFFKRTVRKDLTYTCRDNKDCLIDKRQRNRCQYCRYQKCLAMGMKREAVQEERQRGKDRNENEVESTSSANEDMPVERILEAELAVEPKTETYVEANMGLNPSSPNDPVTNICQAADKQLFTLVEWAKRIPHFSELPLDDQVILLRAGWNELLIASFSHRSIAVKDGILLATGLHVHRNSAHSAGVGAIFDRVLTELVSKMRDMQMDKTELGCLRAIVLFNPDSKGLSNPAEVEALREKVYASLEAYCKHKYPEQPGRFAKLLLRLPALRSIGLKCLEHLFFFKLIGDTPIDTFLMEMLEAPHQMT
Nature of the assay: LXR/LXRE co-transfection assay (luciferase reporter) in CV-1 cells, LXRβ. Conditions: for EC50: CV-1 cells transfected with pCMX-hLXRβ and LXREx1-Tk-Luciferase, 20 hours incubation, read-out: LXRbeta agonism EC50; for Emax: read-out: LXRbeta % EFFICACY
The assay is classed as cell-based. The procedure, abridged: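 CV-1 cells transiently co-transfected with full-length human LXRβ, LXRE-Tk-luciferase reporter and β-galactosidase control, then exposed to compound (≤0.5% DMSO) for 20 h at 37 °C before luminescence read. EC50 from 10-point, half-log dose curves; efficacy relative to the sulfonamide high control, means of 2–3 experiments.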
(In general: In a reporter assay the amount or activity of a reporter protein is the signal.)

Setting [1] is: CV-1 cells, relative to maximum response of high control N-(3-((4-fluorophenyl)-(naphthalene-2-sulfonyl)amino)propyl)-2,2-dimethylpropionamide.

Experimental findings from patent publication US9751869B2, “LXR modulators” (BRISTOL-MYERS SQUIBB COMPANY, priority 2013, dated 2017) are described below.

As to `Cn1nc(C(F)(F)C#N)cc1-c1ccc(-c2cccc(S(C)(=O)=O)c2)cc1-n1nncc1-c1ccc(OC(F)(F)F)cc1` [Example 30, 2,2-difluoro-2-(1-methyl-5-(3′-(methylsulfonyl)-3-(5-(4-(trifluoromethoxy)phenyl)-1H-1,2,3-triazol-1-yl)-[1,1′-biphenyl]-4-yl)-1H-pyrazol-3-yl)acetonitrile], the concentration giving a half-maximal response (EC50) worked out at 1090 nM. In addition, the Emax under setting [1] was 15%.
Regarding `Cn1nc(C(F)(F)C(C)(C)O)cc1-c1ccc(-c2cccc(S(C)(=O)=O)c2)cc1-n1nncc1-c1ccc(Cl)cc1` [Example 31, 1-(5-(3-(5-(4-chlorophenyl)-1H-1,2,3-triazol-1-yl)-3′-(methylsulfonyl)-[1,1′-biphenyl]-4-yl)-1-methyl-1H-pyrazol-3-yl)-1,1-difluoro-2-methylpropan-2-ol], the EC50 amounted to 568 nM. Further, under setting [1], the Emax stood at 50%.
On the same counts, the results for `Cn1nc(C(F)(F)C(N)=O)cc1-c1ccc(-c2cccc(S(C)(=O)=O)c2)cc1-n1nncc1-c1ccc(Cl)cc1Cl` [Example 32, 2-(5-(3-(5-(2,4-dichlorophenyl)-1H-1,2,3-triazol-1-yl)-3′-(methylsulfonyl)-[1,1′-biphenyl]-4-yl)-1-methyl-1H-pyrazol-3-yl)-2,2-difluoroacetamide] are 1760 nM and 43%.
On the same counts, the results for `Cn1nc(C(F)(F)C(C)(C)O)cc1-c1ccc(-c2cccc(S(C)(=O)=O)c2)cc1-n1nncc1-c1ccc2c(c1)OC(F)(F)O2` [Example 33, 1-(5-(3-(5-(2,2-difluorobenzo[d][1,3]dioxol-5-yl)-1H-1,2,3-triazol-1-yl)-3′-(methylsulfonyl)-[1,1′-biphenyl]-4-yl)-1-methyl-1H-pyrazol-3-yl)-1,1-difluoro-2-methylpropan-2-ol] are 1430 nM and 66%.
With `Cn1nc(C(F)(F)C(C)(C)O)cc1-c1ccc(-c2cc(F)c(CO)c(S(C)(=O)=O)c2)cc1-n1nncc1-c1ccc2c(c1)OC(F)(F)O2` [Example 34, 1-(5-(3-(5-(2,2-difluorobenzo[d][1,3]dioxol-5-yl)-1H-1,2,3-triazol-1-yl)-3′-fluoro-4′-(hydroxymethyl)-5′-(methylsulfonyl)-[1,1′-biphenyl]-4-yl)-1-methyl-1H-pyrazol-3-yl)-1,1-difluoro-2-methylpropan-2-ol], the EC50 came to 878 nM. Moreover, under setting [1], the Emax is 63%.
On the same counts, the results for `Cn1nc(C(F)(F)CO)cc1-c1ccc(-c2cccc(S(C)(=O)=O)c2)cc1-n1nncc1-c1ccc2c(c1)OC(F)(F)O2` [Example 35, 2-(5-(3-(5-(2,2-difluorobenzo[d][1,3]dioxol-5-yl)-1H-1,2,3-triazol-1-yl)-3′-(methylsulfonyl)-[1,1′-biphenyl]-4-yl)-1-methyl-1H-pyrazol-3-yl)-2,2-difluoroethanol] are 2230 nM and 87%.
Regarding `Cn1nc(C(F)(F)CO)cc1-c1ccc(-c2cc(F)c(CO)c(S(C)(=O)=O)c2)cc1-n1nncc1-c1ccc2c(c1)OC(F)(F)O2` [Example 36, 2-(5-(3-(5-(2,2-difluorobenzo[d][1,3]dioxol-5-yl)-1H-1,2,3-triazol-1-yl)-3′-fluoro-4′-(hydroxymethyl)-5′-(methylsulfonyl)-[1,1′-biphenyl]-4-yl)-1-methyl-1H-pyrazol-3-yl)-2,2-difluoroethanol], the EC50 is 2730 nM. Further, the Emax under setting [1] is 91%.
For `Cn1nc(C(=O)NC(C)(C)C#N)cc1-c1ccc(-c2cccc(S(C)(=O)=O)c2)cc1-n1nncc1-c1ccc(OC(F)(F)F)cc1` [Example 37, N-(1-cyano-1-methylethyl)-1-methyl-5-[3′-(methylsulfonyl)-3-(5-{4-[(trifluoromethyl)oxy]phenyl}-1H-1,2,3-triazol-1-yl)biphenyl-4-yl]-1H-pyrazole-3-carboxamide] the same measures were 1560 nM and 47%.
For `CN(C)C(=O)c1cc(-c2ccc(-c3cccc(S(C)(=O)=O)c3)cc2-n2nncc2-c2ccc(OC(F)(F)F)cc2)n(C)n1` [Example 38, N,N,1-trimethyl-5-[3′-(methylsulfonyl)-3-(5-{4-[(trifluoromethyl)oxy]phenyl}-1H-1,2,3-triazol-1-yl)biphenyl-4-yl]-1H-pyrazole-3-carboxamide] the same measures were 1130 nM and 60%.
On to `Cn1nc(C(=O)NCC(F)(F)F)cc1-c1ccc(-c2cccc(S(C)(=O)=O)c2)cc1-n1nncc1-c1ccc(OC(F)(F)F)cc1` [Example 39, 1-methyl-5-[3′-(methylsulfonyl)-3-(5-{4-[(trifluoromethyl)oxy]phenyl}-1H-1,2,3-triazol-1-yl)biphenyl-4-yl]-N-(2,2,2-trifluoroethyl)-1H-pyrazole-3-carboxamide], for which the EC50 was determined as 776 nM. Moreover, the Emax under setting [1] amounted to 79%.
Take `Cn1nc(C(=O)NC(C)(C)C)cc1-c1ccc(-c2cccc(S(C)(=O)=O)c2)cc1-n1nncc1-c1ccc(OC(F)(F)F)cc1` [Example 40, N-(1,1-dimethylethyl)-1-methyl-5-[3′-(methylsulfonyl)-3-(5-{4-[(trifluoromethyl)oxy]phenyl}-1H-1,2,3-triazol-1-yl)biphenyl-4-yl]-1H-pyrazole-3-carboxamide]: the EC50 was 695 nM. For the same compound, the Emax under setting [1] was 76%.
For `Cc1nc(-c2ccc3c(c2)OC(F)(F)O3)c(-c2cc(-c3cc(F)cc(S(C)(=O)=O)c3)ccc2-c2cc(C(F)(F)C(N)=O)nn2C)o1` [Example 45, 2-(5-(3-(4-(2,2-difluorobenzo[d][1,3]dioxol-5-yl)-2-methyloxazol-5-yl)-3′-fluoro-5′-(methylsulfonyl)biphenyl-4-yl)-1-methyl-1H-pyrazol-3-yl)-2,2-difluoroacetamide] the same measures were 297 nM and 45%.
For `Cn1nc(C(F)(F)C(N)=O)cc1-c1ccc(-c2cc(F)c(CO)c(S(C)(=O)=O)c2)cc1-c1oc(C2CC2)nc1-c1ccc2c(c1)OC(F)(F)O2` [Example 46, 2-(5-(3-(2-cyclopropyl-4-(2,2-difluorobenzo[d][1,3]dioxol-5-yl)oxazol-5-yl)-3′-fluoro-4′-(hydroxymethyl)-5′-(methylsulfonyl)biphenyl-4-yl)-1-methyl-1H-pyrazol-3-yl)-2,2-difluoroacetamide] the same measures were 25 nM and 45%.
`Cc1nc(-c2ccc3c(c2)OC(F)(F)O3)c(-c2cc(-c3cc(F)c(CO)c(S(C)(=O)=O)c3)ccc2-c2cc(C(F)(F)C#N)nn2C)o1` [Example 47, 2-(5-(3-(4-(2,2-difluorobenzo[d][1,3]dioxol-5-yl)-2-methyloxazol-5-yl)-3′-fluoro-4′-(hydroxymethyl)-5′-(methylsulfonyl)biphenyl-4-yl)-1-methyl-1H-pyrazol-3-yl)-2,2-difluoroacetonitrile]: the 50% effective concentration (EC50) was 663 nM. Further, the Emax under setting [1] was found to be 72%.
For `Cc1nc(-c2ccc(OC(F)(F)F)cc2)c(-c2cc(-c3cccc(S(C)(=O)=O)c3)ccc2-c2cc(C(F)(F)C(C)(C)O)nn2C)o1` [Example 48, 1,1-difluoro-2-methyl-1-(1-methyl-5-(3-(2-methyl-4-(4-(trifluoromethoxy)phenyl)oxazol-5-yl)-3′-(methylsulfonyl)biphenyl-4-yl)-1H-pyrazol-3-yl)propan-2-ol] the same measures were 46 nM and 27%.
Turning to `Cc1nc(-c2ccc3c(c2)OC(F)(F)O3)c(-c2cc(-c3cccc(S(C)(=O)=O)c3)ccc2-c2cc(C(F)(F)CO)nn2C)o1` [Example 49, 2-(5-(3-(4-(2,2-difluorobenzo[d][1,3]dioxol-5-yl)-2-methyloxazol-5-yl)-3′-(methylsulfonyl)biphenyl-4-yl)-1-methyl-1H-pyrazol-3-yl)-2,2-difluoroethanol], the EC50 stood at 86 nM. Also, the “LXRbeta % EFFICACY” value under setting [1] came out at 69%.
In the case of `CNC(=O)C(F)(F)c1cc(-c2ccc(-c3cc(F)c(CO)c(S(C)(=O)=O)c3)cc2-c2oc(C)nc2-c2ccc3c(c2)OC(F)(F)O3)n(C)n1` [Example 50, 2-(5-(3-(4-(2,2-difluorobenzo[d][1,3]dioxol-5-yl)-2-methyloxazol-5-yl)-3′-fluoro-4′-(hydroxymethyl)-5′-(methylsulfonyl)biphenyl-4-yl)-1-methyl-1H-pyrazol-3-yl)-2,2-difluoro-N-methylacetamide], the EC50 amounted to 122 nM. Besides, under setting [1], the Emax is 61%.

By EC50 is commonly meant the concentration that produces a half-maximal response.
